Patent US9795602B2, “Polycyclic-carbamoylpyridone compounds and their pharmaceutical use” (Gilead Sciences, Inc., priority 2014, dated 2017)
Read-outs that look alike come from different tables or passages of the source.

How the values were obtained:
HIV-IIIb = assay: Antiviral assay in MT4 cells; assay type: cell-based; details: Human immunodeficiency virus 1, IIIB, MT4, 120 h, MT4 cells, HIV-IIIb, 5 days; read-out: EC50
Description: 1 mL aliquots of 2×10^6 MT4 cells are pre-infected for 1 and 3 hours respectively at 37° C. with 25 μL (MT4) or of either cell growth medium (mock-infected) or a fresh 1:250 dilution of an HIV-IIIb concentrated ABI stock (0.004 m.o.i. for MT4 cells). Infected and uninfected cells are diluted in cell growth medium and 35 μL of 2000 (for MT4) cells is added to each well of the assay plates.
(§1) Assay plates were then incubated in a 37° C. incubator. After 5 days of incubation, 25 μL of 2× concentrated CellTiter-Glo™ Reagent (catalog # G7573, Promega Biosciences, Inc., Madison, Wis.) was added to each well of the assay plate. Cell lysis was carried out by incubating at room temperature for 2-3 minutes, and then chemiluminescence was read using the Envision reader (PerkinElmer).

OCT2 = OCT2 (Homo sapiens (Human), UniProt O15244); assay: OCT2 inhibition assay (14C-TEA uptake, OCT2-transfected MDCKII cells); assay type: cell-based
Sequence of OCT2 (O15244 whole entry): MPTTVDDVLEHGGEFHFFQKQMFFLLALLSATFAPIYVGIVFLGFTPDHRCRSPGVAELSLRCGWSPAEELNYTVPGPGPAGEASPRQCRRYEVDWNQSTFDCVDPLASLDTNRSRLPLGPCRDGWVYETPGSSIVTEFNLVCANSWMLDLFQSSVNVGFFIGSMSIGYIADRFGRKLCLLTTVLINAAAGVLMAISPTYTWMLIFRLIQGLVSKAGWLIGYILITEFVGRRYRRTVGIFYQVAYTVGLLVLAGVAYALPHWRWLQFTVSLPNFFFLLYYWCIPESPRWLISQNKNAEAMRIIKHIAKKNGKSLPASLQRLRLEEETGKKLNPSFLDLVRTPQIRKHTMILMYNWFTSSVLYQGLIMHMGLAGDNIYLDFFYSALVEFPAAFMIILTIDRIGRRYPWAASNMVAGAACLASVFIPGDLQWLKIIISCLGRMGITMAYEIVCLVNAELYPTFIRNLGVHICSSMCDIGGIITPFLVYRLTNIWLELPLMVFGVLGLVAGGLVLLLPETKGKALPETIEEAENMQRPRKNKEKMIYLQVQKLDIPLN
Description: MDCKII cells were maintained in minimal essential medium (MEM) with 1% Pen/Strep, 10% fetal bovine serum, and 0.25 mg/mL hygromycin B in an incubator set at 37° C., 90% humidity and 5% CO2. 24 hours prior to assay, media containing 5 mM sodium butyrate were added to MDCKII cells in flasks, and cells were grown to 80-90% confluence. On assay day, cells were trypsinized and resuspended in Krebs-Henseleit Buffer (KHB), pH 7.4 at […]. Cells were preincubated for 15 min in assay plate before addition of test compound or substrate.
Test compounds were serially diluted in DMSO and then spiked (2 μL) into in 0.4 mL KHB buffer containing wild-type or OCT2-transfected cells and incubated for 10 minutes. Assay was initiated with the addition of 0.1 mL of 100 μM ^14C-TEA in KHB buffer (20 μM final concentration after mixing). The concentration of TEA is based on the Km. After 10 minutes of incubation, the assay mixture was quenched with addition of 0.5 mL of ice-cold 1×PBS buffer. Samples were then centrifuged at 1000 rpm for 5 min and supernatants were removed. Wash steps were repeated four times with ice-cold PBS. Finally, the cell pellets were lysed with 0.2N NaOH and let sit at room temperature for at least 30 min to ensure complete lysis. Samples were then counted on liquid scintillation counter and dpm counts were used to perform the following calculations. The % inhibition was calculated as follows: % inhibition=[1−{[OCT2]i−[WT]ni}/{[OCT2]ni−[WT]ni}]*100 where, [OCT2]i represents the dpm count in the presence of test compound for either OCT2 cells, […] of test compound for OCT2 cells and [WT]ni represents the dpm count in the absence of test compound for wild type cells, respectively.

PXR (NR1I2) = PXR (NR1I2) (Homo sapiens (Human), UniProt O75469); assay: Human PXR activation assay (luciferase reporter, DPX2 cells); assay type: cell-based; details: human; 15 uM; DPX2 cells; % Emax relative to rifampicin, adjusted for DMSO background; read-out: PXR % inh at 15 uM (adjusted)
Sequence of PXR (NR1I2) (O75469 whole entry): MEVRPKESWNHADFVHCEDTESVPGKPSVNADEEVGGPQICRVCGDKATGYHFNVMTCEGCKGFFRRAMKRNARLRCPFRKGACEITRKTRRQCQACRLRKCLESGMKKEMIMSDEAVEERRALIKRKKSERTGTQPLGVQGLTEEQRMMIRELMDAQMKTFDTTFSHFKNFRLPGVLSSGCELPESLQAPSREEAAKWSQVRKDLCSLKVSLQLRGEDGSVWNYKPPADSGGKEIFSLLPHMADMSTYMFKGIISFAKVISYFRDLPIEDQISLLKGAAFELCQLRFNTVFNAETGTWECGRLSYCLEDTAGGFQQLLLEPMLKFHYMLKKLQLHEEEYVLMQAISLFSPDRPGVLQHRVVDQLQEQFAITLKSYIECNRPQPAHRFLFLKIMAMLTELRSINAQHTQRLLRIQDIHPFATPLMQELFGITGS
Description: Luciferase Reporter Gene Assay.
A stably transformed tumor cell line (DPX2) was plated on 96-well microtiter plates. […]. The number of viable cells was determined and the reporter gene activity was assessed. […]

[1] = Cytotoxicity (CC50) in MT4 cells, mock-infected; assay type: cell-based; details: human, mock-infected (uninfected)
Description: as §1, with “Infected and uninfected cells are diluted in cell growth medium and 35 μL of 2000 (for MT4) cells is added to each well of the assay plates. Assay” for “Assay”

HIV-1 N155H/Q148R = assay type: cell-based; details: MT2 cells; mean EC50 mutant / mean EC50 wt
Description: (§2) For the antiviral assay utilizing MT-2 cells, 50 μL of 2× test concentration of 3-fold serially diluted compound in culture medium with 10% FBS was added to each well of a 96-well plate (9 concentrations) in triplicate. MT-2 cells were infected with wild-type or mutant variants of HIV-1 for 3 hours using a volume of viral inoculum determined to produce 90% cell killing. Fifty microliters of infected cell suspension in culture medium with 10% FBS (˜1.5×10^4 cells) was then added to each well containing 50 μL of serially diluted compound. The plates with HIV-infected cultures were then incubated at 37° C. for 5 days in the presence of the tested compounds. After 5 days of incubation, 100 μL of CellTiter-Glo™ Reagent (catalog # G7571, Promega Biosciences, Inc., Madison, Wis.) was added to each well. Cell lysis was carried out by incubating at room temperature for 10 min followed by a chemiluminescence read-out.
(§3) The chemiluminescence readout from the 10-point antiviral dose response was analyzed directly by curve fitting with equation (I) to determine the EC50.
(§4) where y=Cell Survival, M=maximum cell survival enabled by drug protection, H=baseline cell survival without drug protection, n=Hill coefficient of the antiviral dose response, m=Hill coefficient of the cytotoxicity dose response, and [I]=inhibitor concentration.
(§5) EC50 values (mean±standard deviation) were calculated from at least three independent experiments performed in triplicate. The fold-change in antiviral activity of tested compounds was calculated as a ratio of the mean EC50 for each mutant virus divided by the mean EC50 of the control WT virus.

HIV-1 G140S/Q148R = assay type: cell-based; details: MT2 cells; mean EC50 mutant / mean EC50 wt
Description: as §2, §3, §4, §5

HIV-1 E92Q/N155H = assay type: cell-based; details: MT2 cells; mean EC50 mutant / mean EC50 wt
Description: as §2, §3, §4, §5

HIV-1 E138K/Q148K = assay type: cell-based; details: MT2 cells; mean EC50 mutant / mean EC50 wt
Description: as §2, §3, §4, §5

[2] = Plasma protein binding (equilibrium dialysis); assay type: in vitro ADME; details: human, 2 μM in plasma vs. buffer, 24 hours at 37° C., read-out: % Free HP/Buffer
Description: Plasma protein binding was determined using a HTD96b equilibrium dialyzer with a plate base, stainless steel pressure plate and Teflon bock. 9 Teflon bars, labeled sequentially from A through I, were assembled with two stainless steel connecting rods. Membranes were placed between two Teflon bars, with the membrane placed approximately 2 mm below the top edge of the bar and the lower membrane edge overlapped the bottom of all wells. The membrane was soaked for about 20 minutes in water, about 20 minutes in ethanol (30/70 v/v) and rinsed with water three times to remove the ethanol. It was soaked in PBS for at least 30 minutes. Plasma in sodium EDTA (Bioreclamation or equivalent) was used. The Plasma (not pH-adjusted) was stored at −80° C. and thawed at room temperature before use. The stock solution of the compounds tested was at 200 μM in DMSO. The quench solution used was 50 nM of an internal standard in 100% ACN. To prepare a 2 μM solution of the compound tested in plasma, 5 μL of a 200 μM stock solution was added to 495 μL of blank plasma. 100 μL plasma was added with 2 μM of test compound into one side of the well. 100 μL of buffer (for plasma vs. buffer) was added into another side of the well. The 96-well plate was covered using an adhesive sealing film and incubated for 24 hours at 37° C. under slow rotation. This procedure was replicated for each compound. 50 μL of plasma sample was put into a 96 well plate, 50 μL of buffer was added. 50 μL of buffer was put into a 96 well plate. 50 μL of plasma was added. 300 μL of quench solution was added and the plate sealed and shaken for 15 minutes. The material was centrifuged for 30 minutes at 3000 RPM and ˜250 μL was transferred into a short plate. The samples were analyzed by LC/MS. The resulting data is shown in the last row of Table 3 as “% Free” which corresponds to the percentage of compound not protein bound.

wild-type HIV-1 = assay: Antiviral assay in MT-2 cells, wild-type HIV-1; assay type: cell-based; details: Human immunodeficiency virus 1, 120 h; MT2 cells, wild-type HIV-1, 5 days; read-out: wt
Description: as §2, §3, §4, §5

[3] = Pharmacokinetics after oral administration to male SD rats; assay type: in vivo; details: Sprague-Dawley, plasma, rat, oral gavage 0.5 mg/kg, solution, read-out: % F (solution)
Description: (§6) Pharmacokinetic analysis was performed on compounds 25b and 39 following intravenous or oral administration to rats.
(§7) The test compounds were formulated in 5% Ethanol, 55% PEG 300, and 40% water at 0.1 mg/mL for IV infusion and for oral dosing.
(§8) Each dosing group consisted of 3 male, Sprague-Dawley rats. At dosing, the animals weighed an average of 0.25 kg. The animals were fasted overnight prior to dose administration and up to 4 hr after dosing.
(§9) For the IV infusion group, the test article was administered by intravenous infusion over 30 min. The rate of infusion was adjusted according to the body weight of each animal to deliver a dose of 0.5 mg/kg. For the oral dosing group, the test article was administered by oral gavage at 5 mL/kg for a dose of 0.5 mg/kg.
For pharmacokinetic analysis of orally administered compounds, serial venous blood samples (approximately 0.3 mL each) were taken from each animal at time points of 0, 0.25, 0.50, 1.0, 2.0, 4.0, 6.0, 8.0, 12.0 24.0, 48.0 and 72 hours after dosing. Blood samples were collected, prepared and analyzed in a similar way to the intravenous studies described above. Non-compartmental pharmacokinetic analysis was performed on the plasma concentration-time data. In Table 2, F (%) refers to oral bioavailability.

[4] = Pharmacokinetics after intravenous infusion to male SD rats; assay type: in vivo; details: Sprague-Dawley, plasma, rat, IV infusion 0.5 mg/kg
Description: as §6, §7, §8, §9
For pharmacokinetic analysis of intravenously administered compounds, serial venous blood samples (approximately 0.3 mL each) were taken from each animal at 0, 0.250, 0.483, 0.583, 0.750, 1.50, 3.00, 6.00, 8.00, 12.0, 24.0, 48 and 72 hours after dosing. The blood samples were collected into Vacutainer™ tubes containing EDTA-K2 as the anti-coagulant and were immediately placed on wet ice pending centrifugation for plasma. An LC/MS/MS method was used to measure the concentration of the test compound in plasma. An aliquot of 50 μL of each plasma sample was added to a clean 96 well plate, and 200 μL of cold acetonitrile/internal standard solution (ACN)/(ISTD) was added. After protein precipitation, an aliquot of 110 μL of the supernatant was transferred to a clean 96-well plate and diluted with 300 μL of water. An aliquot of 10 μL of the above solution was injected into a ABSciex API-4000 triple quadrupole LC/MS/MS system utilizing a HyPurity C18 HPLC column (30×2.1 mm, 3μ), from Thermo-Hypersil (Part #22103-032130). An Agilent 1200 series binary pump (P/N G1312A Bin Pump) was used for elution and separation, and an HTS Pal autosampler (LEAP Technologies, Carrboro, N.C.) was used for sample injection. A API-4000 triple quadrupole mass spectrometer was utilized in multiple reaction monitoring mode (Applied Biosystems, Foster City, Calif.). Liquid chromatography was performed using two mobile phases: mobile phase A contained 0.1% formic acid and 1% isopropylamine in aqueous solution, and mobile phase B contained […]. Non-compartmental pharmacokinetic analysis was performed on the plasma concentration-time data. The resulting data are shown in the first three columns of Table 2. In Table 2, Cl refers to clearance, which characterizes the rate at which drug is removed from plasma. The lower the clearance of a drug is, the longer the elimination half-life is in the body. Vss refers to the steady state volume of distribution and indicates how well a drug is distributed into the tissues. The larger the Vss is, the longer the elimination half-life is in the body. MRT refers to mean residence time, which is a measure of the average time molecules exist in the body.

[5] = plasma (sodium EDTA) versus buffer

| IC50 (OCT2) | SMILES | EC50 (HIV-IIIb) | inhibition at 24 h, 15 µM (PXR (NR1I2)) | CC50 at 5 days [1] | Resistance fold shift N155H/Q148R vs. wild type (HIV-1 N155H/Q148R) | Resistance fold shift G140S/Q148R vs. wild type (HIV-1 G140S/Q148R) | Resistance fold shift E92Q/N155H vs. wild type (HIV-1 E92Q/N155H) | Resistance fold shift E138K/Q148K vs. wild type (HIV-1 E138K/Q148K) | fraction unbound at 24 h, 2 µM [2, 5] | EC50 (wild-type HIV-1) | bioavailability [3] | fraction unbound at 24 h, 2 µM ([2]; plasma (sodium EDTA) dialysed against buffer) | MRT [4] | clearance [4] | Vd ([4]; read-out: Vss) |
| --- | --- | --- | --- | --- | --- | --- | --- | --- | --- | --- | --- | --- | --- | --- | --- |
| 6400 nM | CCN1C(=O)c2c(O)c(=O)c(C(=O)NCc3c(F)cc(F)cc3F)cn2[C@@H]2CCOC[C@H]21 [Compound 12] | 6.26 nM | 18% | 36500 nM | – | – | – | – | – | – | – | – | – | – | – |
| 10000 nM | O=C(NCc1c(F)cc(F)cc1F)c1cn2c(c(O)c1=O)C(=O)N(CC(F)(F)F)[C@H]1COCC[C@H]12 [Compound 31] | 2.62 nM | 1% | 52500 nM | – | – | – | – | – | – | – | – | – | – | – |
| – | CCN1C(=O)c2c(O)c(=O)c(C(=O)NCc3ccc(F)cc3F)cn2[C@H]2CCOC[C@H]21 [Compound 41] | 2.88 nM | 21% | 27400 nM | 1.8 fold shift | 2.9 fold shift | 2.1 fold shift | 3.5 fold shift | 0.057 | 2 nM | – | – | – | – | – |
| – | CCN1C(=O)c2c(O)c(=O)c(C(=O)NCc3c(F)cc(F)cc3F)cn2[C@H]2COC[C@H]21 [Compound 44] | 5.68 nM | 32% | 38000 nM | 17.7 fold shift | 5.9 fold shift | 2.3 fold shift | 23.8 fold shift | 0.068 | 7.8 nM | – | – | – | – | – |
| – | C[C@@H]1CCO[C@H]2Cn3cc(C(=O)NCc4ccc(F)cc4F)c(=O)c(O)c3C(=O)N12 [Dolutegravir, reference compound] | – | – | – | 2.5 fold shift | 3.7 fold shift | 1.9 fold shift | 8.2 fold shift | – | 1.7 nM | 84% | 0.01 | 12.4 h | 0.167 mL/min/kg | 0.17 L/kg |
